The results in this text go back to patent publication US12006318B2, “Crystalline forms of C-C chemokine receptor type 4 antagonist and uses thereof” (RAPT THERAPEUTICS, INC., priority 2019, dated 2024).

Each structure is given as a SMILES string. Read-outs that look alike come from different tables or passages of the source.

A short description of data set [1]: Bioavailability of salt forms in rats. As to conditions: for bioavailability: in rats. In kind it is in vivo.
A short description of data set [2]: Solubility (kinetic solubility) of salt forms at pH 2. As to conditions: for solubility: in pH 2 water. The class given is physicochemical.
A short description of data set [3]: Storage stability at room temperature. The following applies: after 36 months of storage at room temperature. The class given is physicochemical.
Data set [4] in a line: Hygroscopicity of the crystalline salt. The class given is physicochemical.

Turning to `C[C@H](c1ccc(Cl)cc1Cl)n1nc(C(F)(F)F)c2ncc(N3CC([C@H]4CCCN(CCO)C4)C3)nc21` [crystalline form A, 2-((R)-3-(1-(1-((R)-1-(2,4-Dichlorophenyl)ethyl)-3-(trifluoromethyl)-1H-pyrazolo[3,4-b]pyrazin-6-yl)azetidin-3-yl)piperidin-1-yl)ethan-1-ol benzene sulfonate], in data set [1] (embodiment statement), the “bioavailability (in words)” value is reported as “good bioavailability”. Besides, the bioavailability in data set [1] (rat, in vivo, read-out: bioavailability) stood at 34%. The “solubility (in words)” value in data set [2] (embodiment statement) is on record as “good solubility”. Also, the solubility in data set [2] (water at pH 2, aqueous buffer) worked out at 411 µM. The values for the stability on storage result in data set [3] and in data set [3] (listed as benzenesulfonic acid salt) were “outstanding stability” and “superior stability”, respectively. The hygroscopicity entry in data set [4] was “low hygroscopicity”.

With `C[C@H](c1ccc(Cl)cc1Cl)n1nc(C(F)(F)F)c2ncc(N3CC([C@H]4CCCN(CCO)C4)C3)nc21.Cc1ccc(S(=O)(=O)O)cc1` [para-toluenesulfonic acid salt], the bioavailability in data set [1] is 22%. In data set [2] (at pH 2, relative to HCl salt), the “kinetic solubility as fraction of that of the HCl salt” value was “⅕”. Besides, in data set [2], the solubility came to 190 µM. Also, the “solubility compared with the amorphous HCl salt” value in data set [2] (relative to amorphous HCl salt) was “less soluble”.

A word on the bioavailability: it is the share of a dose that reaches the circulation, judged against a reference dose that is usually intravenous. As a reminder, the solubility is the concentration that dissolves in the medium under given conditions.
